Like-named read-outs stand apart in the source and are kept apart here.
What was measured:
Type in all cases: cell-based
HIV-1 (IIIB) = assay: Antiviral assay in MT-4 cells; details: Human immunodeficiency virus 1, IIIB, MT4, 120 h
Protocol: Antiviral Assay in MT-4 Cells
(§1) Compounds were tested in a high-throughput 384-well assay format for their ability to inhibit the replication of HIV-1 (IIIB) in MT-4 cells. Compounds were serially diluted (1:3) in DMSO on 384-well polypropylene plates and further diluted 200-fold into complete RPMI media (10% FBS, 1% P/S) using the Biotek Micro Flow and Labcyte ECHO acoustic dispenser. Each plate contained up to 8 test compounds, with negative (No Drug Control) and 5 μM AZT positive controls. MT-4 cells were pre-infected with 10 μL of either RPMI (mock-infected) or a fresh 1:250 dilution of HIV-1 IIIB concentrated virus stock. Infected and uninfected MT-4 cells were further diluted in complete RPMI media and added to each plate using a Micro Flow dispenser. After 5 days incubation in a humidified and temperature controlled incubator (37° C.), Cell Titer Glo (Promega) was added to the assay plates and chemiluminescence read using an Envision plate-reader. EC50 values were defined as the compound concentration that causes a 50% decrease in luminescence signal, and were calculated using a sigmoidal dose-response model to generate curve fits.

[1] = Cytotoxicity assay in MT-4 cells; details: human, uninfected MT-4 cells, 5 days, Cell Titer Glo; read-out: CC50
Protocol: as §1, with “fits. Cytotoxicity Assay in MT-4 Cells Assays were performed as above except uninfected MT-4 cells were added to each well containing test compound. In addition, 10 μM puromycin was added to the last column of each assay plate to assess a base level of cytotoxicity.” for “fits.”

pLai RLuc reporter virus = assay: HIV MT-4 serum shift antiviral reporter assay; details: Human immunodeficiency virus 1, 72 h
Protocol: To quantify the amount of protein binding to human serum, compounds were serially diluted (1:3) in DMSO and acoustically transferred onto 384-well assay plates via a Labcyte ECHO robot. Each plate contained up to 8 test compounds, including negative and positive controls, (DMSO, 5 μM AZT respectively). Assay plates were prepared in duplicate, and tested in either CCM (cell culture media) or HS/CCM (human serum/cell culture media). MT-4 cells were first pre-infected with pLai RLuc reporter virus for 2 h at 37° C., then further diluted in either CCM (RPMI media, 10% FBS, 1% P/S) or HS/CCM (RPMI media, 10% FBS, 50% HS, 1% P/S), and subsequently added to each plate using a Biotek Micro Flow dispenser. After a 72-h incubation in a humidified and temperature controlled incubator (37° C.), Renilla Glo (Promega) was added to all assay plates and chemiluminescence read using an Envision plate-reader. EC50 values were defined as the compound concentration that causes a 50% decrease in luminescence signal, and were calculated using a sigmoidal dose-response model to generate curve fits. To determine the amount of protein binding, EC50 fold shifts (or EC50 shifts) were calculated by dividing EC50 (HS/CCM)/EC50 (CCM).

[2] = HIV-1 IIIB infected MT-4 cells, 5 days, Cell Titer Glo, read-out: MT4 EC50
[3] = read-out: RLUC 50% HS (nM), HS/CCM: 50% human serum, 72 h, Renilla Glo
[4] = read-out: RLUC CCM (nM), cell culture media (RPMI, 10% FBS), 72 h, Renilla Glo

C[C@H]1CCCCN2CN1n1cc(C(=O)NCc3ccc(F)cc3F)c(=O)c(O)c1C2=O [Example C42, (1R,2S)—N-(2,4-difluorobenzyl)-9-hydroxy-2-methyl-8,10-dioxo-3,4,5,6,8,10-hexahydro-2H-1,7-methanopyrido[1,2-b][1,2,5]triazecine-11-carboxamide]
EC50 (HIV-1 (IIIB); [2]): 2.2 nM | CC50 at 5 days [1]: 7.03 µM | EC50 (pLai RLuc reporter virus; [3]): 1880 nM | EC50 (pLai RLuc reporter virus; [4]): 2.47 nM

CO[C@@H]1CC[C@H](C)N2CN1n1cc(C(=O)NCc3c(F)cc(F)cc3F)c(=O)c(O)c1C2=O [Example C47, (1R,2R,5S)-8-hydroxy-2-methoxy-5-methyl-7,9-dioxo-N-(2,4,6-trifluorobenzyl)-2,3,4,5,7,9-hexahydro-1,6-methanopyrido[1,2-b][1,2,5]triazonine-10-carboxamide]
EC50 (HIV-1 (IIIB); [2]): 1.8 nM | CC50 at 5 days [1]: 11.5 µM | EC50 (pLai RLuc reporter virus; [3]): 196 nM | EC50 (pLai RLuc reporter virus; [4]): 1.71 nM

C[C@@H]1C=C[C@H](CF)N2CN1n1cc(C(=O)NCc3c(F)cc(F)cc3F)c(=O)c(O)c1C2=O [Example C50, (1S,2R,5R)-5-(fluoromethyl)-8-hydroxy-2-methyl-7,9-dioxo-N-(2,4,6-trifluorobenzyl)-2,5,7,9-tetrahydro-1,6-methanopyrido[1,2-b][1,2,5]triazonine-10-carboxamide]
EC50 (HIV-1 (IIIB); [2]): 0.85 nM | CC50 at 5 days [1]: 13.3 µM | EC50 (pLai RLuc reporter virus; [3]): 850 nM | EC50 (pLai RLuc reporter virus; [4]): 0.37 nM

C[C@@H]1C[C@H](F)[C@H](C)N2CN1n1cc(C(=O)NCc3ccc(F)cc3F)c(=O)c(O)c1C2=O [Example C52, (1S,2R,4S,5S)—N-(2,4-difluorobenzyl)-4-fluoro-8-hydroxy-2,5-dimethyl-7,9-dioxo-2,3,4,5,7,9-hexahydro-1,6-methanopyrido[1,2-b][1,2,5]triazonine-10-carboxamide]
EC50 (HIV-1 (IIIB); [2]): 1.5 nM | CC50 at 5 days [1]: 9.21 µM | EC50 (pLai RLuc reporter virus; [3]): 473 nM | EC50 (pLai RLuc reporter virus; [4]): 0.77 nM

C[C@@H]1C[C@@H](F)[C@H](C)N2CN1n1cc(C(=O)NCc3ccc(F)cc3F)c(=O)c(O)c1C2=O [Example C53, (1S,2R,4R,5S)—N-(2,4-difluorobenzyl)-4-fluoro-8-hydroxy-2,5-dimethyl-7,9-dioxo-2,3,4,5,7,9-hexahydro-1,6-methanopyrido[1,2-b][1,2,5]triazonine-10-carboxamide]
EC50 (HIV-1 (IIIB); [2]): 1.3 nM | CC50 at 5 days [1]: 9.01 µM | EC50 (pLai RLuc reporter virus; [3]): 350 nM | EC50 (pLai RLuc reporter virus; [4]): 0.55 nM

C[C@@H]1CC(F)(F)[C@H](C)N2CN1n1cc(C(=O)NCc3ccc(F)cc3F)c(=O)c(O)c1C2=O [Example C54, (1S,2R,5S)—N-(2,4-difluorobenzyl)-4,4-difluoro-8-hydroxy-2,5-dimethyl-7,9-dioxo-2,3,4,5,7,9-hexahydro-1,6-methanopyrido[1,2-b][1,2,5]triazonine-10-carboxamide]
EC50 (HIV-1 (IIIB); [2]): 2.3 nM | CC50 at 5 days [1]: 47.4 µM | EC50 (pLai RLuc reporter virus; [3]): 72.4 nM | EC50 (pLai RLuc reporter virus; [4]): 0.63 nM

C[C@@H]1C=C(F)[C@H](C)N2CN1n1cc(C(=O)NCc3c(F)cc(F)cc3F)c(=O)c(O)c1C2=O [Example C55, (1S,2R,5S)-4-fluoro-8-hydroxy-2,5-dimethyl-7,9-dioxo-N-(2,4,6-trifluorobenzyl)-2,5,7,9-tetrahydro-1,6-methanopyrido[1,2-b][1,2,5]triazonine-10-carboxamide]
EC50 (HIV-1 (IIIB); [2]): 1.3 nM | CC50 at 5 days [1]: 29.5 µM | EC50 (pLai RLuc reporter virus; [3]): 515 nM | EC50 (pLai RLuc reporter virus; [4]): 0.71 nM

C[C@@H]1C[C@@H](C(F)F)[C@H](C)N2CN1n1cc(C(=O)NCc3c(F)cc(F)cc3F)c(=O)c(O)c1C2=O [Example C56, (1S,2R,4R,5S)-4-(difluoromethyl)-8-hydroxy-2,5-dimethyl-7,9-dioxo-N-(2,4,6-trifluorobenzyl)-2,3,4,5,7,9-hexahydro-1,6-methanopyrido[1,2-b][1,2,5]triazonine-10-carboxamide]
EC50 (HIV-1 (IIIB); read-out: MT4 EC50 (nM)): 1.1 nM | CC50 at 5 days [1]: 10.1 µM | EC50 (pLai RLuc reporter virus; [3]): 24.9 nM | EC50 (pLai RLuc reporter virus; [4]): 0.52 nM

C[C@@H]1C[C@@H](CF)[C@H](C)N2CN1n1cc(C(=O)NCc3c(F)cc(F)cc3F)c(=O)c(O)c1C2=O [Example C57, (1S,2R,4R,5S)-4-(fluoromethyl)-8-hydroxy-2,5-dimethyl-7,9-dioxo-N-(2,4,6-trifluorobenzyl)-2,3,4,5,7,9-hexahydro-1,6-methanopyrido[1,2-b][1,2,5]triazonine-10-carboxamide]
EC50 (HIV-1 (IIIB); [2]): 1.2 nM | CC50 at 5 days [1]: 8.93 µM | EC50 (pLai RLuc reporter virus; [3]): 11.6 nM | EC50 (pLai RLuc reporter virus; [4]): 0.27 nM

C[C@H]1[C@@H](F)C[C@H](C)N2CN1C(=O)c1c(O)c(=O)c(C(=O)NCc3ccc(F)cc3F)cn12 [Example C58, (1S,2S,4S,5S)—N-(2,4-difluorobenzyl)-4-fluoro-8-hydroxy-2,5-dimethyl-7,9-dioxo-2,3,4,5,7,9-hexahydro-1,6-methanopyrido[1,2-b][1,2,5]triazonine-10-carboxamide]
EC50 (HIV-1 (IIIB); [2]): 1.5 nM | CC50 at 5 days [1]: 11.3 µM | EC50 (pLai RLuc reporter virus; [3]): 294 nM | EC50 (pLai RLuc reporter virus; [4]): 0.28 nM

C[C@@H]1C=C[C@@H](C)N2CN1C(=O)c1c(O)c(=O)c(C(=O)NCc3c(F)cc(F)cc3F)cn12 [Example C64, (1S,2R,5R)-8-hydroxy-2,5-dimethyl-7,9-dioxo-N-(2,4,6-trifluorobenzyl)-2,5,7,9-tetrahydro-1,6-methanopyrido[1,2-b][1,2,5]triazonine-10-carboxamide]
EC50 (HIV-1 (IIIB); [2]): 0.8 nM | CC50 at 5 days [1]: 11.4 µM | EC50 (pLai RLuc reporter virus; [3]): 150 nM | EC50 (pLai RLuc reporter virus; [4]): 0.27 nM

C[C@@H]1CC[C@@H](C)N2CN1C(=O)c1c(O)c(=O)c(C(=O)NCc3c(F)cc(F)cc3F)cn12 [Example C65, (1S,2R,5R)-8-hydroxy-2,5-dimethyl-7,9-dioxo-N-(2,4,6-trifluorobenzyl)-2,3,4,5,7,9-hexahydro-1,6-methanopyrido[1,2-b][1,2,5]triazonine-10-carboxamide]
EC50 (HIV-1 (IIIB); [2]): 1.8 nM | CC50 at 5 days [1]: 15.4 µM | EC50 (pLai RLuc reporter virus; [3]): 63.8 nM | EC50 (pLai RLuc reporter virus; [4]): 0.44 nM

C[C@@H]1CC[C@@H](C)N2CN1C(=O)c1c(O)c(=O)c(C(=O)NCc3ccc(F)cc3F)cn12 [Example C67, (1S,2R,5R)—N-(2,4-difluorobenzyl)-8-hydroxy-2,5-dimethyl-7,9-dioxo-2,3,4,5,7,9-hexahydro-1,6-methanopyrido[1,2-b][1,2,5]triazonine-10-carboxamide]
EC50 (HIV-1 (IIIB); [2]): 1.9 nM | CC50 at 5 days [1]: 25.5 µM | EC50 (pLai RLuc reporter virus; [3]): 35.3 nM | EC50 (pLai RLuc reporter virus; [4]): 0.51 nM

C[C@@H]1C=CCN2CN1n1cc(C(=O)NCc3c(F)cc(F)cc3F)c(=O)c(O)c1C2=O [Example C70, (1S,2R)-8-hydroxy-2-methyl-7,9-dioxo-N-(2,4,6-trifluorobenzyl)-2,5,7,9-tetrahydro-1,6-methanopyrido[1,2-b][1,2,5]triazonine-10-carboxamide]
EC50 (HIV-1 (IIIB); [2]): 1.2 nM | CC50 at 5 days [1]: 11.6 µM | EC50 (pLai RLuc reporter virus; [3]): 11.5 nM | EC50 (pLai RLuc reporter virus; [4]): 0.54 nM

CC[C@@H]1CC[C@H](C)N2CN1n1cc(C(=O)NCc3c(F)cc(F)cc3F)c(=O)c(O)c1C2=O [Example C73, (1S,2R,5S)-2-ethyl-8-hydroxy-5-methyl-7,9-dioxo-N-(2,4,6-trifluorobenzyl)-2,3,4,5,7,9-hexahydro-1,6-methanopyrido[1,2-b][1,2,5]triazonine-10-carboxamide]
EC50 (HIV-1 (IIIB); [2]): 0.8 nM | CC50 at 5 days [1]: 7.65 µM | EC50 (pLai RLuc reporter virus; [3]): 276 nM | EC50 (pLai RLuc reporter virus; [4]): 0.63 nM
